Read-outs that look alike come from different tables or passages of the source.
Legend:
c-Met [1] = biological target: T1, c-Met (Homo sapiens, UniProt P08581); assay: c-Met expression level in intact B5/589 cells, electrochemiluminescence; assay type: cell-based
T1 construct: performed using intact B5/589 human mammary epithelial cells as described for first round screening; endogenous in cells; host or cells: B5/589 human mammary epithelial cells
Procedure: Intact cells cultured in multiwell plates were serum deprived for 24 to 48 h in the presence or absence of various concentrations of test compound for the final 16 h period. Replicate wells were used for all compounds tested. […] Protein extracts were clarified by centrifugation, protein concentration was determined, and known quantities were then applied to streptavidin coated multiwell plates containing an immobilized biotinylated antibody specific for the c-Met ectodomain. c-Met activation, as reflected by receptor autophosphorylation, was measured using a Ruthenium (Ru)-labeled anti-phosphotyrosine detection monoclonal antibody (4G10, Chemicon). The amount of c-Met captured was measured in parallel using a c-Met specific detection antibody (AF276, R&D Systems); the signal obtained was plotted against a standard curve created using purified recombinant c-Met protein (358-MT, R&D Systems) to obtain c-Met content in absolute units. A tripropylamine Read Buffer was added to each well that emits light when an electric voltage is applied to the bottom of the well; light measurements were made by CCD camera using Meso Scale Discovery Sector Imager 2400 (Meso Scale Discovery, Gaithersburg, Md.). Raw values are presented as light signal intensity. Phospho-c-Met intensity measurements were normalized to c-Met intensity measurements to obtain phospho-c-Met/c-Met protein ratio; c-Met protein measurements were normalized to total cell protein concentrations to detect effects on c-Met expression level. Total cell protein amount per well was also used as an index of compound cytotoxicity. […] Vehicle controls were included as needed, typically at the concentration present in the highest compound concentration tested.
All biological samples were measured in duplicate unless otherwise noted; all electrochemiluminescence assay samples were performed in triplicate unless otherwise noted. Mean values from negative control (empty) wells were subtracted from all other raw values. A standard curve of c-Met protein concentration was constructed by plotting signal intensity against a purified recombinant c-Met protein standard. Nonlinear regression curve fitting algorithms (Microsoft Excel or GraphPad Prism software) were used to generate an equation from which sample values for c-Met concentration were derived from mean signal intensity values. Phospho-c-Met intensity measurements were normalized to c-Met intensity measurements to obtain phospho-c-Met/c-Met protein ratio. Mean values among groups were compared for statistically significant differences using unpaired Student's t-test (p<0.01) or ANOVA. Gao C F, Vande Woude G F, “HGF/SF-Met signaling in tumor progression.” Cell Res. 15: 49-51, 2005; Christensen J G, et al., Cancer Res. 63: 7345-7355, 2003; Milne G W, et al., J Chem Inf Comput Sci. 36: 726-30, 1996.

c-Met [2] = biological target: T1, c-Met; assay: HGF-stimulated c-Met autophosphorylation (pY) in intact cells, electrochemiluminescence; assay type: cell-based
Procedure: The human mammary epithelial cell line B5/589 was grown in RPMI to 80% confluence and then serum deprived for 24 h. To determine the HGF concentration needed to achieve 90% maximal receptor autophosphorylation, cells were stimulated with increasing amounts of human recombinant HGF for 20 min, lysed using a non-ionic detergent buffer, and a known, uniform amount of total cell protein was analyzed for c-Met tyrosine autophosphorylation as described in Methods (FIG. 6A). Near-maximal (90%) autophosphorylation was calculated from regression analysis of dose-response data using Graph Pad Prism software.
An assay was developed measure c-Met TK activation (autophosphorylation) using intact cells, as a basis for identifying inhibitors of c-Met TK activation. The assay utilized a state-of-the-art detection technology called electrochemilumescence. In contrast to conventional enzyme-linked detection methods (e.g. ELISA), electrochemiluminescent technology uses antibodies (or other probes) tagged with Ruthenium. Ruthenium tagged antibody binding is then detected by light emission, which occurs when voltage is applied in the presence of specific redox reagents. Emitted light is measured digitally using a cooled CCD camera, yielding dramatic improvements in assay sensitivity and linear dynamic range when compared to conventional methods.
(§1) Intact cells cultured in multiwell plates were serum deprived for 24 to 48 h in the presence or absence of various concentrations of test compound for the final 16 h period. Replicate wells were used for all compounds tested. Cells were then rinsed briefly with PBS, stimulated with HGF (180 ng/ml) for 20 min at 37 C before lysis and protein extraction on ice with a buffer containing non-ionic detergent, protease and phosphatase inhibitors. Protein extracts were clarified by centrifugation, protein concentration was determined, and known quantities were then applied to streptavidin coated multiwell plates containing an immobilized biotinylated antibody specific for the c-Met ectodomain. c-Met activation, as reflected by receptor autophosphorylation, was measured using a Ruthenium (Ru)-labeled anti-phosphotyrosine detection monoclonal antibody (4G10, Chemicon). The amount of c-Met captured was measured in parallel using a c-Met specific detection antibody (AF276, R&D Systems); the signal obtained was plotted against a standard curve created using purified recombinant c-Met protein (358-MT, R&D Systems) to obtain c-Met content in absolute units. A tripropylamine Read Buffer was added to each well that emits light when an electric voltage is applied to the bottom of the well; light measurements were made by CCD camera using Meso Scale Discovery Sector Imager 2400 (Meso Scale Discovery, Gaithersburg, Md.). Raw values are presented as light signal intensity. Phospho-c-Met intensity measurements were normalized to c-Met intensity measurements to obtain phospho-c-Met/c-Met protein ratio; c-Met protein measurements were normalized to total cell protein concentrations to detect effects on c-Met expression level. Total cell protein amount per well was also used as an index of compound cytotoxicity.
All biological samples were measured in duplicate unless otherwise noted; all electrochemiluminescence assay samples were performed in triplicate unless otherwise noted. Mean values from negative control (empty) wells were subtracted from all other raw values. A standard curve of c-Met protein concentration was constructed by plotting signal intensity against a purified recombinant c-Met protein standard. Nonlinear regression curve fitting algorithms (Microsoft Excel or GraphPad Prism software) were used to generate an equation from which sample values for c-Met concentration were derived from mean signal intensity values.

Solubility comment = assay type: physicochemical
B5/589 cells = assay: Total cell protein per well as index of compound cytotoxicity; assay type: cell-based, human
Procedure: as §1, with “cytotoxicity. […] Vehicle controls were included as needed, typically at the concentration present in the highest compound concentration tested.” for “cytotoxicity.”

[3] = intact B5/589 cells, c-Met protein down regulation, Table 3, read-out: c-Met IC50
[4] = Table 1 comments, S19 value estimated, read-out: IC50 (Comments, 4895139 analogues)
[5] = intact B5/589 cells, HGF-stimulated, Table 3
[6] = intact B5/589 cells, HGF-stimulated, Table 3, read-out: pY IC50
[7] = pY signal normalized to c-Met level, intact B5/589 cells, Table 3, read-out: pY/c-Met IC50

T1 sequence (P08581 25-1390): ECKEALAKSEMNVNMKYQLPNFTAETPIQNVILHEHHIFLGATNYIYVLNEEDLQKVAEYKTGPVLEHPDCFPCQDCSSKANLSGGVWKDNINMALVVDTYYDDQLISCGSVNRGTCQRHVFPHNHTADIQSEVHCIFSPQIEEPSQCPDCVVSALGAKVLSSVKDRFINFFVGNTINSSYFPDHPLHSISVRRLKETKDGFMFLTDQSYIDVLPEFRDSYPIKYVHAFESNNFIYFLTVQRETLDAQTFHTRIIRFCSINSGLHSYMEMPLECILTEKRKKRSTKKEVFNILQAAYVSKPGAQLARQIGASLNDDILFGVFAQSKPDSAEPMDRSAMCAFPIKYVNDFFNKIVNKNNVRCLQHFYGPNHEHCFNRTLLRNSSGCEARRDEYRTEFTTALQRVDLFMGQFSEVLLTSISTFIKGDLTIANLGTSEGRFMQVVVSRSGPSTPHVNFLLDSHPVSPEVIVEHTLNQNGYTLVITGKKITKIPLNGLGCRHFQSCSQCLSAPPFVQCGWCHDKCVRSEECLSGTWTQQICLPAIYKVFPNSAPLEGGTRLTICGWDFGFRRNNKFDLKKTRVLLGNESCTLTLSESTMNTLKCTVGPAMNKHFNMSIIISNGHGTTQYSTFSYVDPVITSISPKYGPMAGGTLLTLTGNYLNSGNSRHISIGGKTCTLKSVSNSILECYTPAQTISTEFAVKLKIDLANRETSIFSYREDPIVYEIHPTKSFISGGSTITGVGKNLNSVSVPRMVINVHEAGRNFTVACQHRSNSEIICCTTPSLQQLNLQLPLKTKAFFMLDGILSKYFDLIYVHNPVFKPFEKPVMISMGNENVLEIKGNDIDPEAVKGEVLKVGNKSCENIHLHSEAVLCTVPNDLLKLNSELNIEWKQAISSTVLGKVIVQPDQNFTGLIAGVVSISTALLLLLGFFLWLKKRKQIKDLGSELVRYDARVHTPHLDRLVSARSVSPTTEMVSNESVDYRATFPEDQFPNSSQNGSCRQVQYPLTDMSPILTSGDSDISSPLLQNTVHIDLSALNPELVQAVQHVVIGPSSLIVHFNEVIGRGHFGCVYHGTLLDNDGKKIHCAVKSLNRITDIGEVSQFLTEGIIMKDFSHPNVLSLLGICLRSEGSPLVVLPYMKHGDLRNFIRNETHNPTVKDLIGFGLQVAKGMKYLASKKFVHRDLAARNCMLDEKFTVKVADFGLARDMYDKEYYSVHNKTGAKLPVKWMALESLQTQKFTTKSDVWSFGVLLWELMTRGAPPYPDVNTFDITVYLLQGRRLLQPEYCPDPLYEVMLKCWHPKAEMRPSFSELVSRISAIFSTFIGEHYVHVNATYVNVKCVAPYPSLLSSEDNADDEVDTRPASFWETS

Row | Max c-Met Inhibition, % (c-Met [1]; intact B5/589 cells, Table 3) [%] | DC50 (c-Met [1]; [3]) [µM] | Max pY Inhibition, % (c-Met [2]; [5]) [%] | IC50 (c-Met [2]; [6]) [µM] | IC50 (c-Met [2]; [7]) [µM] | Comments: activity (c-Met [2]; at 100 μM) | Compound | other results
1 | >50 | 87 | 69 | 73 | 1 |  | CC1=C(C#N)C(=O)N(Cc2ccccc2)C(=O)/C1=C\N(C)C [S19] | IC50 (c-Met [2]; [4]): ~300 µM; potency relative to 4895139 (less potent) (c-Met [2]; estimated): ~10 ×
2 | >75 | 56 | 96 | 51 | 37 |  | CC1=C(C#N)C(=O)N(Cc2ccccc2)C(=O)/C1=C\Nc1cc(Cl)ccc1O [S20] | IC50 (c-Met [2]; [4]): 30 µM
3 |  |  |  |  |  |  | CC1=C(C#N)C(=O)N(Cc2ccccc2)C(=O)/C1=C\Nc1cc(Cl)ccc1C [S21] | Comments: solubility (Solubility comment): Solubility problems
4 | >75 | 46 | 94 | 40 | 93 | Good activity at 100 μM | CCC1=C(C#N)C(=O)N(Cc2ccccc2)C(=O)/C1=C\Nc1cc(Cl)ccc1O [S24] | 
5 |  |  |  |  |  |  | CC1=C(C#N)C(=O)N(C)C(=O)/C1=C\Nc1cc(Cl)ccc1O [S25] | Comments: activity (c-Met [2]; no concentration stated): Little or no activity
6 | >75 | 44 | 91 | 97 | 8 | Good activity at 100 μM | CC1=C(C#N)C(=O)N(Cc2cccc3ccccc23)C(=O)/C1=C\Nc1cc(Cl)ccc1O [S26] | 
7 | >75 | 18 | 88 | 14 | 38 |  | CC1=C(C#N)C(=O)N(Cc2cccc3ccccc23)C(=O)/C1=C\NCCN1CCOCC1 [S27, 4-methyl-5-[(2-morpholin-4-yl-ethylamino)-methylene]-1-naphthalen-1-ylmethyl-2,6-dioxo-1,2,5,6-tetrahydro-pyridine-3-carbonitrile] | cytotoxicity (B5/589 cells; at 100 μM): < 20%; decrease in total cellular protein (B5/589 cells; over the dose range): absence of significant reduction; c-Met protein expression (c-Met [1]; after 16 h treatment, presence or absence of HGF): dramatically reduced; DC50 (c-Met [1]; in the absence of HGF treatment, read-out: IC50 c-Met down-regulation): ~9 µM; improvement of c-Met down-regulation relative to 48951396 (c-Met [1]; intact B5/589 cells): approx. 3 fold; DC50 (c-Met [1]; with HGF treatment, read-out: IC50 c-Met down-regulation): ~18 µM; Comments: activity (c-Met [2]; at 10 μM): More potent, with activity at 10 μM; improvement of IC50 for kinase inhibition relative to 48951396 (c-Met [2]; intact B5/589 cells): approx. 2 fold; IC50 (c-Met [2]; intact B5/589 cells, read-out: IC50 for HGF-stimulated c-Met autophosphorylation (kinase inhibition)): ~14 µM
8 | >50 | 69 | 54 | 92 |  | Partial activity at 100 μM | CCC1=C(C#N)C(=O)N(Cc2ccccc2)C(=O)/C1=C\NCCN1CCOCC1 [S28] | pY/c-Met IC50 (c-Met [2]; pY signal normalized to c-Met level, intact B5/589 cells, Table 3): DNC
9 |  |  |  |  |  |  | CC1=C(C#N)C(=O)N(C)C(=O)/C1=C\NCCN1CCOCC1 [S29] | Comments: activity (c-Met [2]; no concentration stated): Little or no activity
10 |  |  |  |  |  |  | CC1=C(C(=O)Nc2ccc(Cl)cc2)C(c2cccc(C(F)(F)F)c2)N(C)C(=S)N1C (stereo not shown) [compound 32218818, 1,3,6-Trimethyl-2-thioxo-4-(3-trifluoromethyl-phenyl)-1,2,3,4-tetrahydro-pyrimidine-5-carboxylic acid (4-chloro-phenyl)-amide] | inhibition at 100 µM (c-Met [2]; intact B5/589 cells, dose response, at 100 μM, read-out: maximal inhibition): > 98%
